Laboratory results published in patent publication US6943151B2, “Method of inhibiting bone resorption and/or promoting bone formation using GLP-2 and related compounds” (Sanos Bioscience A/S, priority 2000, dated 2005).

What was measured:
[1] = system: S-CTX (bone resorption); test: Serum C-telopeptide fragments of collagen type I degradation (S-CTX) by serum CrossLaps ELISA, marker of bone resorption, after administration to human subjects; assay type: in vivo
Description: In these Examples Haematology and serum chemistry including glucose were measured using an auto analyser (Vitros). Serum FSH was measured by IRMA (Coat-A-Count®, DPC, Los Angeles, Calif.). Serum C-telopeptide fragments of collagen type I degradation (S-CTX) were measured by ELISA, serum CrossLaps™ assay (Osteometer BioTech A/S—Denmark). Serum osteocalcin was determined by ELISA, an assay which determines the N-terminal mid segment of the molecule. Serum insulin and c-peptide were both assessed by RIA (Coat-A-Count® for insulin and Double Antibody C-peptide for c-peptide both DPC, Los Angeles, Calif.).
12 healthy women and men between 30-45, respectively 30-60, were included in a randomised, controlled cross over study comparing the effects of oral fructose on GLP-1, on GIP and on bone turnover. The individuals had not suffered diseases suspected to affect bone turnover such as cancer, rheumatoid arthritis or diseases compromising absorption from the gut or excretion/re-absorption from the kidney nor had they a history of serious diseases, which might influence the conduct of the study. A general laboratory screening including haematology and serum chemistry gave no indication of specific organ dysfunction. […]

[2] = system: GLP-1; test: Level of GLP-1 in blood after oral nutrient intake; assay type: in vivo, human; settings: after 2 hours; oral 75 g fructose; healthy women and men
From the text: (§1) 12 healthy women and men between 30-45, respectively 30-60, were included in a randomised, controlled cross over study comparing the effects of oral fructose on GLP-1, on GIP and on bone turnover. The individuals had not suffered diseases suspected to affect bone turnover such as cancer, rheumatoid arthritis or diseases compromising absorption from the gut or excretion/re-absorption from the kidney nor had they a history of serious diseases, which might influence the conduct of the study. A general laboratory screening including haematology and serum chemistry gave no indication of specific organ dysfunction. The individuals were not under influence of bone active medication, thus more than 3 months had passed since previous treatment with calcium, vitamin D, oestrogen or progestin in any administration form and the individuals had never been treated with bisphosphonates or fluoride.
After fasting from 10 p.m. the evening prior to an experiment, blood samples were collected between 7:30 a.m. and 8:30 a.m. Immediately thereafter oral fructose were initiated. […]
The normal mixed meal consisted of rye bread, toast, butter, cheese, jam, yoghurt, banana, and orange juice (total weight 755 g), with an energy content of 3.92 MJ and a protein:carbohydrate:fat energy ratio of 10%:52%:37% evaluated from food tables.

[3] = system: GIP; test: Level of GIP in blood after oral nutrient intake; assay type: in vivo, human; settings: oral 75 g fructose; healthy women and men; result in words
From the text: as §1
After fasting from 10 p.m. the evening prior to an experiment, blood samples were collected between 7:30 a.m. and 8:30 a.m. Immediately thereafter oral fructose were initiated. At precisely 1, 2, 3, 6 and 9 hours after the first blood sample, blood samples were collected. A washout period of 2 weeks was instituted between each experiment.
Oral fructose consisted of 75 g fructose dissolved in 300 ml water with juice of a half lemon added. […]

[4] = Level of GLP-2 in blood after subcutaneous GLP-2 injection; assay type: in vivo; settings: subcutaneous bolus injection of 400 μg synthetic human GLP-2; healthy women and men
From the text: 6 healthy women and 3 healthy men between 24-53 were included in a study comparing the effect of a GLP-2 injection on GLP-2intact and on bone turnover.
The description of the methodology of measurement of GLP-2intact and total GLP-2 and the description of the test persons was as described in detail in Hartmann, B. et al., J Clin Endocrinol Metab 2000; 85 (8):2884-2888.
Blood samples were drawn at regular intervals before, during, and after the injection.
The test persons received a subcutaneous bolus injection of 400 μg synthetic human GLP-2.

## O=C(CO)[C@@H](O)[C@H](O)[C@H](O)CO [fructose]
[1]; after 2 hours, oral intake after overnight fast, 12 healthy women and men
  reduction in S-CTX: 36%
[2]
  occurrence (level) of GLP-1 compared to the baseline of 100% at To: 220%
[3]
  level of GIP: almost maintained at the baseline

## GLP-2: synthetic human GLP-2, 33 amino acid peptide fragment of proglucagon (126-158)
[1]; after 3 hours, subcutaneous bolus injection of 400 μg, 6 healthy women and 3 healthy men
  reduction in S-CTX: 33%
[4]
  time to peak level of GLP-2 after the injection: 1 h
